In experiment [1] the target is T1, sortase A from Staphylococcus aureus (Staphylococcus aureus, UniProt Q2FV99).
T1 construct: purchased AnaSpec AS-72229
As to the kind of experiment: Sortase activity inhibition assay (SensoLyte 520 Sortase A Activity Assay Kit). The following applies: 50 μM; for effect on sortase A enzymatic activity (in words) / decrease of sortase A activity: after 10 min of incubation with the substrate. It is filed as biochemical. As for the experimental part: The enzymatic activity of sortase A from Staphylococcus aureus was determined using SensoLyte 520 Sortase A Activity Assay Kit * Fluorimetric * (AnaSpec AS-72229, AnaSpec, San Jose, CA, USA) in accordance with the manufacturer’s instructions. […] DMSO at a concentration of 0.8% was used as a control. PCMB (4-(hydroxymercuri)benzoic acid) was used as sortase A enzyme activity inhibitor. Fluorescence was measured with a plate reader PHERAStar FS (BMG Labtech, Offenburg, Germany) for 60 min, with a time interval of 5 min. The data were processed with MARS Data Analysis v. 3.01R2 (BMG Labtech, Offenburg, Germany). The results were presented as relative fluorescent units (RFUs) and percentage of the control data, calculated using STATISTICA 10.0 software.

Experiment [2] deals with biofilm formation of Staphylococcus aureus. Description: Biofilm formation, crystal violet biofilm assay. In kind it is cell-based. The following applies: for formation of biofilms (in words): 100 μM; for inhibition at 100 µM: Staphylococcus aureus. The procedure: The inhibition of the reducing biofilm formation and growth was assessed using the crystal violet biofilm assay as described. Mueller Hinton broth was inoculated with 10^9 CFU/mL of S. aureus overnight cultures. A total of 90 µL of this cell suspension was then dispensed into 96-well microtiter plates containing 10 µL of different concentrations of compounds 1–6. After 24 h growth at 37 °C the plates were washed with PBS to remove unbound cells. Next, the wells were stained with 0.1% crystal violet solution for 10 min at 37 °C. At the completion of the incubation, plates were washed 3 times with PBS and dried. Then, the crystal violet dye from the biofilm was solubilized with 100 µL of ethanol. A total of 100 µL of this solution was then moved to a new microtiter plate for absorbance measurement at λ = 570 nm. The results were reported as percent inhibition normalized to the wild-type control.

In experiment [3] the test system is Staphylococcus aureus ATCC 21027. Description: Antimicrobial activity, bacterial growth (OD620). To be noted: for inhibition at 100 µM: read-out: inhibition of S. aureus growth; for change of antimicrobial activity on decrease of concentration: decrease of concentration from 100 μM (two-fold for compound 6). In kind it is cell-based. The procedure: The antibacterial activity of compounds 1–6 was evaluated as described previously. The bacterial culture of Staphylococcus aureus ATCC 21027 (Collection of Marine Microorganisms PIBOC FEBRAS) was cultured in a Petri dish at 37 °C for 24 h on solid medium Mueller Hinton broth with agar—16.0 g/L. The assays were performed in 96-well microplates in appropriate Mueller Hinton broth. Each well contained 90 µL of bacterial suspension (10^9 CFU/mL). Then, 10 µL diluted at concentrations from 1.5 µM to 100.0 µM using two-fold dilution was added to compounds 1–6 (DMSO concentration < 1%). Culture plates were incubated overnight at 37 °C, and the OD620 was measured using a Multiskan Spectrum spectrophotometer (Thermo Labsystems Inc., Beverly, MA, USA). Gentamicin was used as a positive control in concentration 1 mg/mL; 1% DMSO solution in PBS as a negative.

In experiment [4] the test system is human keratinocytes HaCaT co-cultivated with S. aureus. As to the kind of experiment: Co-cultivation of HaCaT cells with S. aureus, LDH release. In kind it is cell-based. The following applies: 10 μM, 48 h co-cultivation. The procedure: Co-cultivation of HaCaT cells with S. aureus was carried out as described. HaCaT cells at a concentration of 1.5×10^4 cells per well were seeded in 96-well plates for 24 h. Then, culture medium in each well was changed with S. aureus suspension (10^2 CFU/mL) in full DMEM medium. Fresh DMEM medium without S. aureus suspension was added in other wells as needed. Compounds 1–6 at a concentration of 10 μM were added in wells after 1 h. HaCaT cells and S. aureus were cultured at 37 °C in a humidified atmosphere with 5% (v/v) CO2 for 48 h. After incubation, the plate was centrifuged at 250× g for 10 min and 50 µL of supernatant from each well was transferred into the corresponding wells of an optically clear 96-well plate. An equal volume of the reaction mixture (50 µL) from LDH Cytotoxicity Assay Kit (Abcam, Cambridge, UK) was added to each well and incubated for up to 30 min at room temperature. The absorbance of all samples was measured at λ = 450 nm using a Multiskan FC microplate photometer (Thermo Scientific, Waltham, MA, USA) and expressed in optical units (o.u.).

The target in experiment [5] is T1, sortase A from Staphylococcus aureus. The following applies: cited from earlier work.
The test system of experiment [6] is Staphylococcus aureus ATCC 21027. The arrangement: method as in PMID 34677452. To be noted: cited from earlier work.
For experiment [7], the system named is human keratinocytes HaCaT co-cultivated with S. aureus. Set-up: method as in PMID 34677452. To be noted: cited from earlier work.
Experiment [8] relates to biofilm formation of Staphylococcus aureus. Set-up: method as in PMID 34677452. To be noted: cited from earlier work.
Where [9] appears, read: Staphylococcus aureus, ATCC21027, 100 μM.

“Also recorded” adds a separate entry of the source.

T1 sequence (Q2FV99 whole entry): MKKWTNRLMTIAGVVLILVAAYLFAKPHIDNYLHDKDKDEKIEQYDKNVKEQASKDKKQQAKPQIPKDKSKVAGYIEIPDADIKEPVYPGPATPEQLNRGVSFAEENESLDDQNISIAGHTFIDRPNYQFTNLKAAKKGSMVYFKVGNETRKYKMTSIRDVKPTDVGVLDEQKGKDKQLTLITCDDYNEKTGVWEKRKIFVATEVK

Take `C=C(C)C#CC1=C[C@@H](O)[C@@H](Cl)[C@H](O)[C@@H]1O` (relative stereo) [Compound 4, Acrucipentyn D]: the “effect on sortase A enzymatic activity (in words)” value in experiment [1] is “less significant effects”. For the same compound, the “formation of biofilms (in words)” value in experiment [2] is recorded as “almost absent”. Moreover, the “change of effect on biofilm formation when diluted twice” value in experiment [2] (diluted twice from 100 μM) is on record as “halved”. Besides, in experiment [3] (setting [9]), the inhibition (usually the percentage by which the read-out fell short of the control) at 100 µM was no more than 50%. Also, in experiment [4], the “effect on LDH release (in words)” value was “greatest effect; also recorded: significant activity”.

Regarding `C=C(C)C#CC1=C[C@@H](O)[C@H](O)[C@@H](Cl)[C@@H]1O` (relative stereo) [Compound 5, Acrucipentyn E], in experiment [1], the “decrease of sortase A activity” value amounted to 21%. For the same compound, in experiment [2], the “effect on biofilm formation, comparison in words” value is reported as “weaker inhibitory effect” and 100 µM produced 30% inhibition. Moreover, in experiment [3] (setting [9]), the inhibition at 100 µM was no more than 50%. For the same compound, the “effect on LDH release (in words)” value in experiment [4] is reported as “greatest effect”.

Consider flavuside B, for which the “sortase A enzymatic activity (in words)” value in experiment [5] is “inhibitor of sortase A enzymatic activity”. Also, the “S. aureus growth (in words)” value in experiment [6] is reported as “able to inhibit”. Besides, the “protection of HaCaT keratinocytes in co-culture model (in words)” value in experiment [7] is reported as “protect HaCaT keratinocytes against S. aureus infection”. Moreover, the “S. aureus biofilm formation (in words)” value in experiment [8] was “able to inhibit”.

For the compound `C=C(C)C#C[C@@H]1C[C@H](O)[C@H](O)[C@@H](Cl)[C@@H]1O` (relative stereo) [Compound 3, Acrucipentyn C], in experiment [1] (60 min data acquisition), the “time-dependent inhibitory effect on sortase A activity” value is given as “detected throughout the entire period of data acquisition”. Moreover, in experiment [1], the “decrease of sortase A activity” value is on record as 30%. In experiment [2], the “concentration down to which a high level of inhibition of biofilm formation is kept” value worked out at 12.5 µM and the “formation of biofilms (in words)” value was “almost absent”. Moreover, in experiment [3] (setting [9]), the inhibition at 100 µM turned out to be 50%. For the same compound, in experiment [3], the “change of antimicrobial activity on decrease of concentration” value is reported as “two-fold decrease in activity”.

In the case of `C=C(C)C#C[C@@H]1C[C@H](O)[C@H](Cl)[C@@H](O)[C@H]1O` (relative stereo) [Compound 2, Acrucipentyn B], in experiment [1], the “effect on sortase A enzymatic activity (in words)” value is “inactive; also recorded: did not have any effect”. Moreover, the “effect on biofilm formation, comparison in words” value in experiment [2] is recorded as “did not show a significant effect”. The inhibition at 100 µM in experiment [2] was 30%; in experiment [3] (setting [9]), no more than 50%. For the same compound, the “effect on LDH release (in words)” value in experiment [4] was “greatest effect; also recorded: significant activity”.

Turning to `C=C(C)C#C[C@@H]1C[C@@H](O)[C@@H](Cl)[C@H](O)[C@@H]1O` [Compound 1, Acrucipentyn A], in experiment [1], the “decrease of sortase A activity” value was 18%. Moreover, the “inhibition of biofilm formation” value in experiment [2] (concentrations of 12.5–100 μM, respectively) is given as 50–70%. Besides, in experiment [3], the “antimicrobial effect against S. aureus, ranking in words” value is given as “most pronounced antimicrobial effects”. Besides, the inhibition at 12.5 µM in experiment [3] (Staphylococcus aureus, ATCC21027, 12.5 μM, read-out: antimicrobial activity (inhibition of S. aureus growth)) is no more than 50%. The inhibition at 100 µM in experiment [3] (setting [9]) was 60%. The “effect on LDH release (in words)” value in experiment [4] is recorded as “greatest effect”.

In the case of `C=C(C)C#CC1=C[C@@H](O)[C@@H]2O[C@@H]2[C@@H]1O` (relative stereo) [Compound 6, Acrucipentyn F], the “effect on sortase A enzymatic activity (in words)” value in experiment [1] was “less significant effects”. Further, in experiment [2], the “concentration down to which a high level of inhibition of biofilm formation is kept” value came to 25 µM and the “formation of biofilms (in words)” value is listed as “almost absent”. In experiment [3], the “antimicrobial effect against S. aureus, ranking in words” value is recorded as “most pronounced antimicrobial effects” and the “change of antimicrobial activity on decrease of concentration” value was “halved”. Besides, in experiment [3] (100 μM), the “inhibition of S. aureus growth (in words)” value is “almost completely inhibited”.
